# Numbers after ± are expanded uncertainties.
# Experiments:
# [1] = 101.33 kPa, Liquid; for electrical conductivity: Direct current cell with electrodes; for mass density: Vibrating tube method
# [2] = mn = molality of the nth substance listed, in mol/kg; conditions: 100 kPa, Liquid, Capillary tube (Ostwald / Ubbelohde) method, m2 = 0
compound,measurement,setting,value
O [water],viscosity,"[1]; 293.15 K, Capillary tube (Ostwald / Ubbelohde) method",1.003 ± 0.021 mPa·s
same,viscosity,"[1]; 298.15 K, Capillary tube (Ostwald / Ubbelohde) method",0.89 ± 0.019 mPa·s
same,viscosity,"[1]; 303.15 K, Capillary tube (Ostwald / Ubbelohde) method",0.797 ± 0.017 mPa·s
same,viscosity,"[1]; 308.15 K, Capillary tube (Ostwald / Ubbelohde) method",0.719 ± 0.015 mPa·s
same,viscosity,"[1]; 313.15 K, Capillary tube (Ostwald / Ubbelohde) method",0.653 ± 0.014 mPa·s
CCCCn1cc[n+](C)c1.O=C([O-])c1ccccc1O [1-butyl-3-methylimidazolium salicylate],viscosity,"[1]; 293.15 K, Cone and plate viscometry",1194.1 ± 80 mPa·s
same,electrical conductivity,[1]; 293.15 K,0.0182 ± 0.0006 S/m
same,mass density,[1]; 293.15 K,1152.27 ± 4.6 kg/m3
same,viscosity,"[1]; 298.15 K, Cone and plate viscometry",777.63 ± 46 mPa·s
same,electrical conductivity,[1]; 298.15 K,0.0281 ± 0.0008 S/m
same,mass density,[1]; 298.15 K,1149.05 ± 4.5 kg/m3
same,viscosity,"[1]; 303.15 K, Cone and plate viscometry",501.42 ± 26 mPa·s
same,electrical conductivity,[1]; 303.15 K,0.0447 ± 0.0013 S/m
same,mass density,[1]; 303.15 K,1145.65 ± 4.5 kg/m3
same,viscosity,"[1]; 308.15 K, Cone and plate viscometry",338.14 ± 15 mPa·s
same,electrical conductivity,[1]; 308.15 K,0.0692 ± 0.0021 S/m
same,mass density,[1]; 308.15 K,1142.22 ± 4.5 kg/m3
same,viscosity,"[1]; 313.15 K, Cone and plate viscometry",240 ± 9.8 mPa·s
same,electrical conductivity,[1]; 313.15 K,0.0965 ± 0.0029 S/m
same,mass density,[1]; 313.15 K,1138.76 ± 4.5 kg/m3
same,viscosity,"[1]; 318.15 K, Cone and plate viscometry",167.97 ± 6.1 mPa·s
same,electrical conductivity,[1]; 318.15 K,0.156 ± 0.0047 S/m
same,viscosity,"[1]; 323.15 K, Cone and plate viscometry",127.06 ± 4.2 mPa·s
same,electrical conductivity,[1]; 323.15 K,0.22 ± 0.0066 S/m
O [water] + CCCCn1cc[n+](C)c1.O=C([O-])c1ccccc1O,viscosity,[2]; 293.15 K,1.003 ± 0.021 mPa·s
same,viscosity,[2]; 298.15 K,0.89 ± 0.019 mPa·s
same,viscosity,[2]; 303.15 K,0.797 ± 0.017 mPa·s
same,viscosity,[2]; 308.15 K,0.719 ± 0.015 mPa·s
same,viscosity,[2]; 313.15 K,0.653 ± 0.014 mPa·s
